According to patent US5220018A, “Cholecystokinin antagonists” (Merck & Co., Inc., priority 1992, dated 1993):
Read-outs that look alike come from different tables or passages of the source. Non-standard residues stand in square brackets, D forms with d. Residues, ends and D or L forms follow the SMILES beside them. *: point of attachment. sY = N[C@@H](Cc1ccc(OS(=O)(=O)O)cc1)C(=O)O; Cbz = O=C(OCc1ccccc1)*

Key:
[1] = tested on: CCK-B receptors; conditions: literature, Bock et al. 1989; cited from earlier work
[2] = tested on: CCK receptor; conditions: literature; cited from earlier work
[3] = molecular target: T1, CCK Receptor (Pancreas) (Rattus norvegicus, UniProt P30551); assay: biochemical; assay type: binding, Male Sprague-Dawley rats; conditions: rat pancreas membranes, 125I-CCK-8 50 pM, 25° C., 2 hours; read-out: IC50, 125I-CCK Pancreas
T1 construct: The whole pancreas was dissected free of fat tissue and was homogenized; from tissue; host or cells: rat whole pancreas, homogenate membranes
T1 sequence (P30551 1-444): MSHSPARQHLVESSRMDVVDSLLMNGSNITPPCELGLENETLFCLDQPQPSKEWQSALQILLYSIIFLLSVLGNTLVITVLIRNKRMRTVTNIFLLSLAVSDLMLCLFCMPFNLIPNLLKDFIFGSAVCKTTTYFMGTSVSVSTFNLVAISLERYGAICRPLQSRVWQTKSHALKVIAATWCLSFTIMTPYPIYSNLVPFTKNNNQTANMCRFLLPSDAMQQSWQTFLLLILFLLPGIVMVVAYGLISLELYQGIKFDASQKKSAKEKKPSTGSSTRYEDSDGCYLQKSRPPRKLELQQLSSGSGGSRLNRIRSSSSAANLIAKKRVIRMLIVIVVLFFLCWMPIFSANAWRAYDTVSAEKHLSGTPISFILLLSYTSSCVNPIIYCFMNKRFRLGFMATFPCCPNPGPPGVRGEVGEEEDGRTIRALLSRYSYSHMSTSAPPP
Method: 1. CCK Receptor Binding (Pancreas)
CCK-8 sulphated was radiolabelled with ^125 I-Bolton Hunter reagent (2000 Ci/mmole). Receptor binding was performed according to Chang and Lotti (Proc. Natl. Acad. Sci. 83, 4923-4926, 1986) with minor modifications.
Male Sprague-Dawley rats (150-200 g) were sacrificed by decapitation. The whole pancreas was dissected free of fat tissue and was homogenized in 25 volumes of ice-cold 10 mM Hepes buffer with 0.1% soya bean trypsin inhibitor (pH 7.4 at 25° C.) with a Kinematica Polytron. The homogenates were centrifuged at 47,800 g for 10 min. Pellets were resuspended in 10 volumes of binding assay buffer (20 mM Hepes, 1 mM EGTA, 5 mM MgCl2, 150 mM NaCl, bacitracin 0.25 mg/ml, soya bean trypsin inhibitor 0.1 mg/ml, and bovine serum albumin 2 mg/ml, pH 6.5 at 25° C.) using a teflon homogenizer, 15 strokes at 500 rpm. The homogenate was further diluted in binding assay buffer to give a final concentration of 0.5 mg original wet weight/1 ml buffer. […] All assays were run in duplicate. The reaction mixtures were incubated at 25° C. for 2 hours and the reaction terminated by rapid filtration (Brandell 24 well cell harvester) over Whatman GF/C filters, washing 3×4 mls with ice-cold 100 mM NaCl. The radioactivity on the filters was counted with a LKB gamma counter.
(§1) Drug displacement studies were performed with at least 10 concentrations of compounds of formula 1 and the IC50 values were determined by regression analysis.

[4] = molecular target: T2, CCK Receptor (Brain) (Cavia porcellus, UniProt H0VZC5); assay: CCK Receptor Binding (Brain), inhibition of 125I-CCK-8 binding; set-up: species or system Male Hartley guinea pigs
T2 construct: the cortex was removed and homogenized in 25 mL ice-cold 0.32M sucrose; from tissue; host or cells: guinea pig cerebral cortex, P2 membrane pellet
T2 sequence (H0VZC5 1-426): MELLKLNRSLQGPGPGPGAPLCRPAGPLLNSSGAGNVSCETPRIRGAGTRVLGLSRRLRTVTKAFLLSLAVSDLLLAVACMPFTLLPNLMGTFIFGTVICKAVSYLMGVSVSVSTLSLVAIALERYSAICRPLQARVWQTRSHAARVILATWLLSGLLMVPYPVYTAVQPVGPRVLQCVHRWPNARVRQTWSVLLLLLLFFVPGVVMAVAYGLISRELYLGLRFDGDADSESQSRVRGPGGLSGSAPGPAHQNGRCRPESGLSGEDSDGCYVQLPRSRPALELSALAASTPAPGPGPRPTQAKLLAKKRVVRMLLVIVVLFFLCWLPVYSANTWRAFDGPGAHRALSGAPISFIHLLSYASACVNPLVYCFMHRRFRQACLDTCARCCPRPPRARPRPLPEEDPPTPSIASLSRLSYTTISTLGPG
Method: 2. CCK Receptor Binding (Brain)
CCK-8 sulphated was radiolabelled and the binding was performed according to the description for the pancreas method with minor modifications.
Male Hartley guinea pigs (300-500 g) were sacrificed by decapitation and the cortex was removed and homogenized in 25 mL ice-cold 0.32M sucrose. The homogenates were centrifuged at 1000 g for 10 minutes and the resulting supernatant was recentrifuged at 20,000 g for 20 minutes. […] All assays were run in duplicate. The reaction mixtures were incubated at 25° C. for 2 hours and then the reaction was terminated on Whatman GF/C filters by rapid filtration (Brandell 24 well cell Harvester) with 3×5 ml washes of cold 100 mM NaCl. The radioactivity on the filters was then counted with a LKB gamma counter.
as §1

[5] = molecular target: T3, Gastrin Receptor (Cavia porcellus, UniProt H0VZC5); assay: Gastrin Receptor Binding in Guinea Pig Gastric Glands; set-up: species or system guinea pigs
T3 construct: from tissue; host or cells: guinea pig gastric mucosal glands (collagenase-dispersed)
T3 sequence (H0VZC5 1-426): T2 sequence (H0VZC5 1-426)
Method: Gastrin antagonist activity of compounds of Formula I is determined using the following assay.
A. Gastrin Receptor Binding in Guinea Pig Gastric Glands
Preparation of guinea pig gastric mucosal glands
Guinea pig gastric mucosal glands were prepared by the procedure of Chang et al., Science 230, 177-179 (1985) with slight modification. Gastric mucosa from guinea pigs (300-500 g body weight, male Hartley) were isolated by scraping with a glass slide after washing stomachs in ice-cold, aerated buffer consisting of the following: 130 mM NaCl, 12 mM NaHCO3, 3 mM NaH2 PO4, 3 mM Na2 HPO4, 3 mM K2 HPO4, 2 mM MgSO4, 1 mM CaCl2, 5 mM glucose and 4 mM L-glutamine, 50 mM HEPES, 0.25 mg/ml bacitracin, 0.10 mg/ml soya bean trypsin inhibitor, 0.1 mg/ml bovine serum albumin, at pH 6.5, and then incubated in a 37° C. shaking water bath for 40 minutes in buffer containing 1 mg/ml collagenase and bubbled with 95% O2 and 5% CO2. The tissues were passed twice through a 5 ml syringe to liberate the gastric glands, and then filtered through Nitex #202 gauge nylon mesh. The filtered glands were centrifuged at 272 g for 5 minutes and washed twice by resuspension in 25 ml buffer and centrifugation.
The washed guinea pig gastric glands prepared as above were resuspended in 25 ml of standard buffer. […] The radioactivity on the filters was measured using a LKB gamma counter.

[6] = tested on: gastrin; conditions: in vitro, literature; cited from earlier work
[7] = guinea pig cortex membranes, 125I-CCK-8 50 pM, 25° C., 2 hours, read-out: IC50, 125I-CCK Brain

Row | Structure (SMILES) | IC50 [3] [nM] | IC50 [4, 7] [nM] | further results
1 | Cc1cccc(NC(=O)N[C@@H]2N=C(c3ccccc3)c3ccccc3N(C)C2=O)c1 [(R)-N-(2,3-dihydro-1-methyl-2-oxo-5-phenyl-1H-1,4-benzodiazepin-3-yl)-N^1-(3-methylphenyl) urea] | – | – | CCK-B receptor antagonism in words [1]: potent and selective antagonist of CCK-B receptors
2 | CSCC[C@H](NC(=O)[C@H](Cc1ccc(OS(=O)(=O)O)cc1)NC(=O)OCc1ccccc1)C(=O)NCC(=O)N[C@@H](Cc1c[nH]c2ccccc12)C(=O)N[C@@H](CCSC)C(=O)N[C@@H](CC(=O)O)C(N)=O [Cbz-Tyr(SO3 H)-Met-Gly-Trp-Met-Asp-NH2] (Cbz-[sY]MGWMD-NH2) | – | – | CCK receptor activity in words [2]: partial agonist
3 | CN1C(=O)[C@H](NC(=O)Nc2cccc(-c3nnn[nH]3)c2)N=C(c2ccccc2)c2ccccc21 [Example 1, N-{1,3-Dihydro-1-methyl-2-oxo-5-phenyl-1H-1,4-benzodiazepin-3-yl}-N'-{[3-(1H-tetrazol-5-yl)phenyl]urea}] | 400 | – | IC50 [4]: 1 nM; IC50 [5]: 0.7 nM
4 | CC(C)CN1C(=O)[C@H](NC(=O)Nc2cccc(-c3nnn[nH]3)c2)N=C(c2ccccc2)c2ccccc21 [Example 2, N-{1,3-Dihydro-1-[2-methyl]propyl-2-oxo-5-phenyl-1H-1,4-benzodiazepin-3-yl}-N'-{[3-(1H-tetrazol-5-yl)phenyl]urea}] | 1400 | 0.1 | IC50 ([5]; guinea pig gastric glands, method: 125I-gastrin 0.1 nM, 25° C., 30 minutes, read-out: IC50, 125I-CCK Gastric Glands): 0.24 nM
5 | CN1C(=O)[C@H](NC(=O)Nc2cccc(C3=NOS(=O)N3)c2)N=C(c2ccccc2)c2ccccc21 (some centres unmarked) [Example 36, N-{1,3-Dihydro-1-methyl-2-oxo-5-phenyl-1H-1,4-benzodiazepin-3-yl}-N'-{[3-(1,2,4-oxadiathiazol-5-one)phenyl]urea}] | 1520 | 19.6 | –
6 | CN1C(=O)[C@H](NC(=O)Nc2cccc(-c3n[nH]c(=O)o3)c2)N=C(c2ccccc2)c2ccccc21 [Example 37] | 2460 | 3.62 | –
7 | CCCC(=O)Nc1nc2c(ncn2[C@@H]2O[C@@H]3COP(=O)(O)O[C@H]3[C@H]2OC(=O)CCC)c(=O)[nH]1 [dibutyryl cyclic GMP] | – | – | CCK receptor activity in words [2]: the most potent
8 | CCCN(CCC)C(=O)C(CCC(=O)O)NC(=O)c1ccccc1 (centres unmarked) [proglumide] | – | – | gastrin antagonism in words [6]: very weak in vitro antagonists
